Test system: isolated rat soleus muscles
Experiment: Measurement of force in an in vitro model: isolated rat soleus nerve-muscle preparation with tubocurarine
Type: cell-based
Details: 50 μM test compound, after 40 mins of compound exposure, 115 nM tubocurarine for 90 mins; for activation at 50 µM: Rattus norvegicus, 40 min, read-out: Point increase (%) of initial force that was restored
Procedure: FIG. 2. […] Force traces from a representative muscle stimulated to contract in 1) control condition before addition of neuromuscular blocking agent, 2) the force response to stimulation after 90 minutes incubation with Tubocurarine. […] The traces presented in panel A (1, 2, 3), correspond to the dotted lines in panel B, respectively.
Recovery of force is quantified as the percentage of the force prior to tubocurarine that is recovered by the compound.
The current disclosure relates to compounds that inhibit CIC-1 ion channels and increase muscle excitability and thereby improve muscle function in clinical conditions where muscle activation is failing. Such conditions result in loss of contractile function of skeletal muscle, weakness and excessive fatigue. In this series of experiments the compounds were tested for their ability to restore contractile function of isolated rat muscle when the neuromuscular transmission had been compromised akin to neuromuscular disorders.
Experimentally, soleus muscles from 4-5 week old rats were isolated with the motor nerve remaining attached. The nerve-muscle preparations were mounted in experimental setups that enabled electrical stimulation of the motor nerve. Stimulation of the motor nerve led to activation of the muscle fibres and ensuing force production that was recorded. The nerve-muscle preparations were also in these experiments incubated in the standard Krebs Ringer (see example 5) and the solution was heated to 30° C. and continuously equilibrated with a mixture of 95% O2 and 5% CO2, pH˜7.4.
After mounting the nerve-muscle preparation in the experimental setup, the contractile function of the muscle was initially assessed under the control conditions (FIG. 2A). […] The experimental condition mimics the failing neuromuscular transmission in a range of neuromuscular disorders. After addition of tubocurarine the contractile force declined over the next 90 mins to 10-50% of the control force. 50 μM of the test compound was then added and the contractile force recovered despite the continued presence of tubocurarine. To quantify the ability of the compound to restore force the percentage of the initial force that was restored was determined after 40 mins of compound exposure (FIG. 2B) and the point increase is reported in Table 3.

## CC(=NO)NC(=O)[C@H](C)Oc1ccc(Br)cc1F [Compound A-5, (2S)-2-(4-bromo-2-fluorophenoxy)-N-[1-(hydroxyimino)ethyl]ropanamide]
  Point increase (%) of initial force that was restored: 30%

## C[C@H](Oc1ccc(Br)cc1C(C)(F)F)C(=O)NC#N [Compound B-6]
  Point increase (%) of initial force that was restored: 15%

## CCC(F)(F)c1cc(Br)c(F)cc1O[C@@H](C)C(=O)NC#N [Compound B-7, (2S)-2-[4-bromo-2-(1,1-difluoropropy1)-5-fluorophenoxy]-N-cyanopropanamide]
  Point increase (%) of initial force that was restored: 37%

## CC(=O)N1CC(ON(C(C)=O)C(=O)[C@H](C)Oc2ccc(Cl)cc2)C1 [Compound C-3, (2S)-N-acetyl-N-[(1-acetylazetidin-3-yl)oxy]-2-(4-chlorophenoxy)propanamide]
  activation at 50 µM: 29%

## CC(=O)N1CCC(ON(C(C)=O)C(=O)[C@H](C)Oc2ccc(Br)cc2)C1 (stereo partly drawn) [Compound C-12, (2S)-N-acetyl-N-[(1-acetylpyrrolidin-3-yl)oxy]-2-(4-bromophenoxy)propanamide]
  activation at 50 µM: 18%

## CC(=O)N1CCC(ON(C(C)=O)C(=O)[C@H](C)Oc2ccc(Cl)cc2)C1 (stereo partly drawn) [Compound C-16, (2S)-N-acetyl-N-[(1-acetylpyrrolidin-3-yl)oxy]-2-(4-chlorophenoxy)propanamide]
  activation at 50 µM: 23%

## C[C@H](Oc1ccc(Br)cc1F)C(=O)NOC1CCC1 [Compound C-31, (2S)-2-(4-bromo-2-fluorophenoxy)-N-cyclobutoxypropanamide]
  activation at 50 µM: 56%

## C[C@H](Oc1ccc(Cl)cc1)C(=O)NOCc1ccon1 [Compound C-39, (2S)-2-(4-chlorophenoxy)-N-[(1,2-oxazol-3-yl)methoxy]propanamide]
  activation at 50 µM: 49%

## CONC(=O)[C@H](C)Oc1ccc(Cl)cc1F [Compound C-40, (2S)-2-(4-chloro-2-fluorophenoxy)-N-methoxypropanamide]
  activation at 50 µM: 24%

## C[C@H](Oc1ccc(Cl)cc1)C(=O)NOC(C)(C)C [Compound C-43, (2S)-N-(tert-butoxy)-2-(4-chlorophenoxy)propanamide]
  activation at 50 µM: 20%

## C[C@H](Oc1ccc(Cl)cc1)C(=O)NOC1CCCCO1 (stereo partly drawn) [Compound C-65, (2S)-2-(4-chlorophenoxy)-N-(oxan-2-yloxy)propanamide]
  activation at 50 µM: 26%

## C[C@H](Oc1ccc(Cl)cc1)C(=O)NOCc1nccs1 [Compound C-66, (2S)-2-(4-chlorophenoxy)-N-[(1,3-thiazol-2-yl)methoxy]propanamide]
  activation at 50 µM: 21%

## C[C@H](Oc1ccc(Cl)cc1)C(=O)NOC1CC(F)(F)C1 [Compound C-67, (2S)-2-(4-chlorophenoxy)-N-(3,3-difluorocyclobutoxy)propanamide]
  activation at 50 µM: 23%

## C[C@H](Oc1ccc(Cl)cc1)C(=O)NOCCC1CCCC1 [Compound C-71, (2S)-2-(4-chlorophenoxy)-N-(2-cyclopentylethoxy)propanamide]
  activation at 50 µM: 25%

## FCC[C@H](Oc1ccc(Br)cc1-c1ccon1)c1nn[nH]n1 [Compound E-1]
  activation at 50 µM: 21%

## C[C@H](Oc1ccc(Br)cc1)c1nn[nH]n1 [Compound E-6, 5-[(1S)-1-(4-bromophenoxy)ethyl]-2H-1,2,3,4-tetrazole]
  activation at 50 µM: 21%

## C=Cc1cc(Cl)ccc1O[C@@H](C)c1nnn[nH]1 [Compound E-12, 5-[(1S)-1-(4-chloro-2-ethenylphenoxy)ethyl]-1H-1,2,3,4-tetrazole]
  activation at 50 µM: 21%

— patent US20220274938A1, “5-[(1S)-1-(4-BROMOPHENOXY)ETHYL]-2H-TETRAZOLE DERIVATIVES AND RELATED COMPOUNDS AS CLC-1 ION CHANNEL INHIBITORS FOR TREATING NEUROMUSCULAR DISORDERS” (NMD PHARMA A/S, priority 2019, published 2022)
